# Reference: PubChem BioAssay (NCI)
#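 Following 48 hours of exposure in 96-well plates, responses at five concentrations were used to interpolate endpoints linearly. At the TGI there is no net growth.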
# Assays:
# Experiment in all cases: NCI tumour cell line growth inhibition, 48 h
# [1] = tested on: COLO 205 colon
# [2] = tested on: SF-295 CNS
# [3] = tested on: TK-10 renal
# [4] = tested on: UACC-257 melanoma
# [5] = tested on: HT29 colon
# [6] = tested on: CCRF-CEM leukemia
# [7] = tested on: RPMI-8226 leukemia
# [8] = tested on: IGROV1 ovarian
# [9] = tested on: SNB-19 CNS
# [10] = tested on: HCT-15 colon
# [11] = tested on: HOP-92 NSCLC
# [12] = tested on: M19-MEL melanoma
# [13] = tested on: SNB-75 CNS
# [14] = tested on: KM20L2 colon
# [15] = tested on: UACC-62 melanoma
# [16] = tested on: DMS 273 small cell lung
# [17] = tested on: HOP-18 NSCLC
# [18] = tested on: KM12 colon
# [19] = tested on: MALME-3M melanoma
# [20] = tested on: ACHN renal
# [21] = tested on: HCT-116 colon
# [22] = tested on: SK-MEL-28 melanoma
# [23] = tested on: M14 melanoma
# [24] = tested on: A549 NSCLC
# [25] = tested on: OVCAR-5 ovarian
# [26] = tested on: MOLT-4 leukemia
# [27] = tested on: SK-MEL-2 melanoma
# [28] = tested on: OVCAR-8 ovarian
# [29] = tested on: SF-539 CNS
# [30] = tested on: SK-OV-3 ovarian
# [31] = tested on: K-562 leukemia
# [32] = tested on: SF-268 CNS
# [33] = tested on: RXF 393 renal
# [34] = tested on: UO-31 renal
# [35] = tested on: HL-60(TB) leukemia
# [36] = tested on: RXF-631 renal
# [37] = tested on: A498 renal
# [38] = tested on: OVCAR-3 ovarian
# [39] = tested on: OVCAR-4 ovarian
# [40] = tested on: SW-620 colon
# [41] = tested on: U251 CNS
# [42] = tested on: DMS 114 small cell lung
# [43] = tested on: LOX IMVI melanoma
# [44] = tested on: LXFL 529 NSCLC
# [45] = tested on: SNB-78 CNS
# [46] = tested on: SN12C renal
# [47] = tested on: NCI-H522 lung
# [48] = tested on: 786-0 renal
# [49] = tested on: HS 578T breast
# [50] = tested on: DU-145 prostate
# [51] = tested on: MDA-MB-435
# [52] = tested on: NCI-H226 lung
# [53] = tested on: HOP-62 NSCLC
# [54] = tested on: PC-3 prostate
# [55] = tested on: DLD-1 colon
# [56] = tested on: MCF7 breast
# [57] = tested on: MDA-N
# [58] = tested on: NCI-H460 lung
# [59] = tested on: CAKI-1 renal
# [60] = tested on: XF 498 CNS
# [61] = tested on: EKVX NSCLC
# [62] = tested on: SK-MEL-5 melanoma
# [63] = tested on: NCI-H23 lung
# [64] = tested on: SR leukemia
# [65] = tested on: HCC-2998 colon
# [66] = tested on: NCI/ADR-RES ovarian
# [67] = tested on: MDA-MB-231 breast
smiles,measurement,setting,value
O/N=C1/C(=C/c2ccc(Br)cc2)CCCC1C(NO)c1ccc(Br)cc1 (centres undefined),TGI,[1],28.7 µM
same,TGI,[2],30.4 µM
same,TGI,[3],33 µM
same,TGI,[4],33.3 µM
same,TGI,[5],35.4 µM
same,TGI,[6],51.2 µM
same,TGI,[7],48.4 µM
same,TGI,[8],32.4 µM
same,TGI,[9],32 µM
same,TGI,[10],31.8 µM
same,TGI,[11],26.5 µM
same,TGI,[12],32.1 µM
same,TGI,[13],36.4 µM
same,TGI,[14],32.5 µM
same,TGI,[15],27.8 µM
same,TGI,[16],25.8 µM
same,TGI,[17],33.8 µM
same,TGI,[18],38.3 µM
same,TGI,[19],31.9 µM
same,TGI,[20],31.2 µM
same,TGI,[21],31.3 µM
same,TGI,[22],34.4 µM
same,TGI,[23],29.9 µM
same,TGI,[24],32.1 µM
same,TGI,[25],24.6 µM
same,TGI,[26],31.7 µM
same,TGI,[27],34 µM
same,TGI,[28],31.5 µM
same,TGI,[29],44.8 µM
same,TGI,[30],44.8 µM
same,TGI,[31],> 100 µM
same,TGI,[32],34.1 µM
same,TGI,[33],31.1 µM
same,TGI,[34],31.3 µM
same,TGI,[35],> 100 µM
same,TGI,[36],30.8 µM
same,TGI,[37],23 µM
same,TGI,[38],31.1 µM
same,TGI,[39],23.3 µM
same,TGI,[40],38.6 µM
same,TGI,[41],45.3 µM
same,TGI,[42],29.6 µM
same,TGI,[43],35.5 µM
same,TGI,[44],27.9 µM
same,TGI,[45],32.6 µM
same,TGI,[46],24.9 µM
same,TGI,[47],32.9 µM
same,TGI,[48],32.9 µM
O=C1C(Nc2ccc(S(=O)(=O)Nc3cnc4ccccc4n3)cc2)=CC(=Nc2ccc(S(=O)(=O)Nc3cnc4ccccc4n3)cc2)c2ccccc21,TGI,[49],> 100 µM
same,TGI,[50],30.7 µM
same,TGI,[1],33.1 µM
same,TGI,[51],34 µM
same,TGI,[2],30.3 µM
same,TGI,[3],> 54.7 µM
same,TGI,[4],> 65.2 µM
same,TGI,[5],36.3 µM
same,TGI,[6],57 µM
same,TGI,[7],> 77.8 µM
same,TGI,[52],43.7 µM
same,TGI,[8],37.4 µM
same,TGI,[9],29 µM
same,TGI,[53],34.8 µM
same,TGI,[10],33 µM
same,TGI,[54],52.9 µM
same,TGI,[11],28.7 µM
same,TGI,[12],30.8 µM
same,TGI,[13],28.5 µM
same,TGI,[14],32 µM
same,TGI,[15],33.6 µM
same,TGI,[16],24.4 µM
same,TGI,[55],31.8 µM
same,TGI,[17],26.9 µM
same,TGI,[18],31 µM
same,TGI,[19],33.8 µM
same,TGI,[56],42.4 µM
same,TGI,[20],> 54.9 µM
same,TGI,[21],32.9 µM
same,TGI,[22],33 µM
same,TGI,[57],34.8 µM
same,TGI,[58],31.7 µM
same,TGI,[23],33.7 µM
same,TGI,[24],38 µM
same,TGI,[59],31.2 µM
same,TGI,[25],30.8 µM
same,TGI,[60],59.2 µM
same,TGI,[26],71.2 µM
same,TGI,[61],36.1 µM
same,TGI,[27],36.3 µM
same,TGI,[28],39.5 µM
same,TGI,[29],35.7 µM
same,TGI,[62],31.5 µM
same,TGI,[30],31 µM
same,TGI,[31],> 74.9 µM
same,TGI,[32],38.2 µM
same,TGI,[33],32.3 µM
same,TGI,[34],30.4 µM
same,TGI,[35],54.7 µM
same,TGI,[37],30.3 µM
same,TGI,[38],47.6 µM
same,TGI,[63],36.1 µM
same,TGI,[39],47.2 µM
same,TGI,[40],32.1 µM
same,TGI,[41],34 µM
same,TGI,[64],> 73.9 µM
same,TGI,[42],38 µM
same,TGI,[43],30.7 µM
same,TGI,[65],31.3 µM
same,TGI,[66],> 100 µM
same,TGI,[44],29.5 µM
same,TGI,[67],70.2 µM
same,TGI,[45],47.3 µM
same,TGI,[46],30.6 µM
same,TGI,[47],30.5 µM
same,TGI,[48],31.6 µM
